Legend:
[1] = tested on: lung tissue Treg cells; experiment: Daily intra-tracheal instillation of Poly I:C, flow cytometry of lung T cells; assay type: in vivo, mice
Text: To investigate the mechanism by which Notch4 licenses lung tissue inflammation in viral respiratory infections, its role in Poly I:C-induced airway inflammation was first examined. Poly I:C stimulates Toll like receptor 3 and the downstream viral RNA sensors cytoplasmic retinoic acid-inducible gene I (RIG-I) and melanoma differentiation-associated protein 5 (MDA5), thus providing a proxy model of RNA viral infections (Broggi et al., 2020; Iwasaki and Pillai, 2014; Kato et al., 2006). […] Treg cell specific deletion of Notch4 using a Foxp3-driven Cre recombinase (Foxp3YFPCre) and floxed Notch4 allele (Foxp3YFPCreNotch4Δ/Δ) protected the mice from the weight loss induced by the Poly I:C treatment (data not shown).
(§1) Polyinosinic-polycytidylic acid (Poly I:C) mouse model. Mice were treated intratracheally with 2.5 mg/kg of Poly I:C HMW (InvivoGen) daily for six consecutive days. The weight of the mice was recorded daily upon application of the Poly I:C. The mice were subjected to airway hyperresponsiveness at day 7, then euthanized and analyzed. For blockading amphiregulin, mice were treated with a peptide spanning amino acids 91140 of the middle region of the human amphiregulin preproprotein (amphiregulin91-140 peptide; Mybiosource). The peptide was given intratracheally at 10 µg/ml in PBS in a final volume of 100 µl. For the amphiregulin neutralizing antibody tests, the mice were given intraperitoneally 20 µg of goat anti-mouse amphiregulin mAb (clone AF989; R&D systems) or isotype control mAb (clone AB-108-C; R&D systems) daily for the duration of the experiment.

[2] = tested on: Treg cells; experiment: In vitro induction of Notch4 expression in Treg cells; assay type: cell-based; details: Treg cells from PBS or Poly I:C-treated mice
Description: To further elucidate the mechanisms of Notch4 induction in Treg cells, in vitro studies were conducted to examine the capacity of Poly I:C and cytokine treatment to upregulate Notch4 expression in Treg cells isolated from PBS or Poly I:C-treated mice.

[3] = tested on: Foxp3YFPCre mice treated with Poly I:C; experiment: Recombinant amphiregulin therapy in Poly I:C-induced lung inflammation; assay type: in vivo; details: data not shown
Text: To establish the role of amphiregulin in the protection against lung inflammation induced by Notch4 depletion, the capacity of recombinant amphiregulin therapy to rescue Poly I:C-induced lung inflammation was examined. […] Recombinant amphiregulin also reversed the skewing of lung macrophages towards an M1 phenotype upon in vitro treatment with Poly I:C (FIG. 7H), mirroring the same effect of Foxp3YFPCreNotch4Δ/Δ Treg cells (data not shown).
as §1

[4] = tested on: lung macrophages; experiment: Lung macrophage M1/M2 polarization in vitro upon Poly I:C treatment; assay type: cell-based, mice; details: in vitro treatment with Poly I:C
Description: Regulatory T-cell co-cultures with macrophages. Macrophages cells are isolated from lungs of Poly I:C-treated mice. Macrophages were isolated based on CD45^+ F4/80^+ MHCII^+. Macrophages were then co-cultured (at 1:1 concentration) with lungs Treg cells from Foxp3^YFPCre or Foxp3^YFPCreNotch4^Δ/Δ mice Poly I:C-treated mice. Cells were treated with Poly I:C at a concentration of 10 ug/ml for three days. After 72 h, M1 (F4/80^+ MHCII^+ CD68^+ CD80^+CD86^+) and M2 (F4/80^+ MHCII^+ CD163^+ CD206^+) polarization was measured by flow cytometric analysis.
M1 and M2 gating strategy. M1 was defined as follows: CD45^+CD4^-F4/80^+MHCII^+ CD68^+ CD80^+CD86^+ while M2 macrophages were defined as follows: CD45^+CD4^-F4/80^+ MHCII+CD163+CD206+.

[5] = daily intra-tracheal for 6 consecutive days

## Polyinosinic-polycytidylic acid [Poly I:C]
[1]; Poly I:C treatment
  expression of Hippo pathway effector Yap in lung tissue Treg cells: potently induced
  expression of Wnt pathway effector beta-Catenin in lung tissue Treg cells: unchanged
[1]; [5]
  expression of Notch4 on CD4+ Teff cells: minimal expression
  frequencies and absolute numbers of Notch4 expressing lung tissue Treg cells and MFI of Notch4: sharp progressive increase
[2]
  Notch4 expression in lung Treg cells: increased Notch4 expression
  Notch4 expression in splenic Treg cells: not splenic

B1: recombinant amphiregulin: recombinant epidermal growth factor-like cytokine amphiregulin, necessary for tissue repair (protein, UniProt P15514 101-187, looked up)
Amphiregulin: SVRVEQVVKPPQNKTESENTSDKPKRKKKGGKNGKNRRNRKKKNPCNAEFQNFCIHGECKYIEHLEAVTCKCQQEYFGERCGEKSMK
[3]; Poly I:C treatment
  epithelial barrier function: restoration of an intact epithelial barrier function
[3]
  inflammatory responses induced by Poly I:C treatment: largely abrogated
  weight loss induced by Poly I:C treatment: largely abrogated
[4]
  skewing of lung macrophages towards an M1 phenotype: reversed

— patent US20230226095A1, “METHODS AND COMPOSITIONS FOR TREATING C[…]” (The Children's Medical Center Corporation, priority 2020, published 2023)
